According to article PMC2816717, “Active Fragments from Pro- and Antiapoptotic BCL-2 Proteins Have Distinct Membrane Behavior Reflecting Their Functional Divergence” (PLoS ONE, 2010):

How the values were obtained:
isolated mitochondria = assay: Cytochrome c release assay, source of mitochondria not stated; format: biochemical; conditions: for effect on isolated mitochondria, in words: summary in Discussion
Method: (§1) Figure 7 Cytochrome c release assays. Peptides were incubated with isolated mitochondria for the indicated times (min) and the release of cytochrome c was monitored by Western blotting (IB). MitoHSP70 was used as an equal-loading control for the pellet fraction. Control lanes indicate that in the preparation the MOM is intact and cytochrome c is retained within the intermembrane space. A. Cytochrome c release assays for the first (BAX-α5S, BCLX-α5S, BID-α6) and second helices (BAX-α6, BCLX-α6, BID-α7) of the ‘pore domain’ of BAX, BCL-xL and BID using mitochondria isolated from HEK293T cells. B. Cytochrome c release assays for BAX-α5M and BAX-α5MS using mitochondria isolated from MEF and MEK BAX/BAK -/- double knock-out cells (MEF DKO). C. Cytochrome c release assays for the BH3 peptides.
Last, we proceeded to perform similar dose-response experiments by measuring cytochrome c release from isolated mitochondria with peptides derived from the BH3 domains of BAX, BID and BCL-xL. […] On the other hand, the BH3 peptides from BAX and BID triggered mitochondrial cytochrome c release, although with markedly less efficiency (starting at 25 µM after 15–30 min of peptide exposure) than BAX-α5, BAX-α6 or BID-α6.
(§2) Crude mitochondria were prepared from HEK 293T, mouse embryo fibroblast (MEF) or BAX/BAK double knockout MEF cells (MEF-DKO). In brief, cells were mechanically broken using a 2 ml glass/glass Dounce homogenizer (Kontes) (30 strokes). Homogenates were cleared at 1500 g and mitochondria were spun down at 10 000 g. For cytochrome c release assays, 30 µg of crude mitochondria were resuspended at 1 mg/ml in KCl buffer supplemented with succinate (5 mM) and EGTA (0.5 mM). Peptides (2.5, 10 or 25 µM) were added to the samples and incubations were carried out at 30°C under agitation (300 rpm). At the indicated time points, samples were centrifuged (5 min, 10 000 g, 4°C); supernatants and pellets were recovered and analyzed by immunoblotting for Cytochrome c and mitoHsp70.

[1] = system: mitochondria isolated from HEK293T cells; assay: Cytochrome c release assay; format: biochemical
Method: Thus, we tested the ability of the different peptides to induce the release of mitochondrial proteins by incubating them with mitochondria isolated from HEK293T cells, and subsequently assaying the supernatant and pelleted fractions with antibodies for cytochrome c and mitoHSP70. […] On the other hand, incubation of mitochondria with 10 µM BID-α6 induced a slower release, with depletion of the mitochondrial pool of cytochrome c occurring only after 1 hour incubation.
as §1, §2

[2] = Langmuir monolayer penetration assay, lipid mixture not singled out (Figure 5); format: physicochemical; conditions: πi 5 mN/m; for final increase of surface pressure πmax (insertion), in words: Figure 5A; for final increase of surface pressure πmax (insertion), in words / initial velocity of surface pressure increase Vi (affinity), in words: peptide 0.2 µM, Hepes pH 7.4, duplicate; for initial velocity of surface pressure increase Vi (affinity), in words: Figure 5B
Description: (§3) For the biophysical characterization of membrane active protein fragments, we have used Langmuir monolayers as in vitro model of lipid membranes. These supramolecular lipid films formed at the air-water interface are attractive membrane models, widely used for studying peptide-lipid interactions, [56], [57]. We have investigated the binding of peptides derived from the central helices of BAX, BCL-xL and BID at physiological pH with model phospholipid monolayers of a composition that imitates mitochondrial membranes. For this purpose we selected fragments encompassing the sequences corresponding to the first or second α-helices of the core hairpins of BAX, BCL-xL and BID, as defined in the water-soluble protein structures, [17], [19]. Because the structures of those proteins in a membrane environment is currently unavailable, for the case of the first hairpin helix of BAX and BCL-xL (α5) we analyzed both a short version (labeled “S”), including only the reported α-helical residues, and a long version (labeled “L”) that extends a few residues beyond the α-helix stretch at both ends. Divergence of the BID sequence precluded unambiguous alignment with the other two proteins and a similar peptide design. Peptides corresponding to the BH3 domain of BAX, BCL-xL and BID were also included in the study. The sequence and some general properties of the peptides analyzed in this study are described in Table 1 and Figure 1). Lipid mixtures of POPC/DOPE (2∶1) and POPC/DOPE/CL (1∶1∶1) were chosen to mimic the MOM and the contact sites between inner and outer mitochondrial membrane (MIM/MOM), respectively. Penetration assays were carried out at constant area by spreading the lipids at the air-buffer interface, compressing the film at πi = […] and then injecting the peptides into the subphase at a concentration of 0.2 µM (see Material and Methods). Subsequent peptide binding results typically in an increase of surface pressure. Thus, the peptide-monolayer interaction can be characterized by measurable kinetic properties, such as the initial velocity of surface pressure increase (Vi), which informs about the affinity of the peptide for the lipid-water interface, and the final increase of surface pressure (πmax), which can be related to the insertion ability of the peptide into the monolayer.
Figure 5 Changes in surface pressure after peptide injection. Peptides were injected underneath POPC/DOPE or POPC/DOPE/CL monolayers at constant area. A. Final increase of surface pressure πmax (mN/m) obtained for the different peptides. The dashed line denotes the threshold (Δπ = 4.8 mN/m) for significant surface pressure variation as determined using BAX-α5S without lipids (see text). B. Initial velocity of surface pressure increase (Vi = Δπ/s).
(§4) Monolayer experiments were performed on a computer-controlled Langmuir film balance (KSV 2000, three multi-compartment system, KSV Instrument Ltd., Finland) working in a symmetrical compression mode and enclosed in an opaque cabinet. The rectangular trough (V = 85 mL ±1 mL, S = 119.25 cm^2) was made of Teflon and the mobile barriers were made in Delrin. The surface pressure, π defined as γ0 – γ, where γ0 is the surface tension of the pure aqueous subphase and γ the surface tension exerted by phospholipids at the subphase surface, was measured by the Wilhelmy's method using a platinum plate with an accuracy of ±0.05 mN/m. The trough was filled with Hepes buffer (pH 7.4), used as subphase and thermostated with a water circulating bath (Lauda E100, LAUDA France, SARL). In all experiments, the subphase temperature was maintained at a constant value of 22.5±0.5°C.
Phospholipid monolayers were formed by deposition of 14 µl of spreading solutions at a clean air/buffer interface by means of a micropipette to reach a final amount of 14 nmol of phospholipids. […]

[3] = Langmuir monolayer penetration assay at constant area; format: physicochemical; conditions: control peptides, Figure S2 legend; unit not given (Δπ elsewhere in mN/m); conditions as Fig. 5: πi 5 mN/m, 0.2 µM
Description: as §3, §4
Phospholipid monolayers were formed by deposition of 14 µl of spreading solutions at a clean air/buffer interface by means of a micropipette to reach a final amount of 14 nmol of phospholipids. After complete evaporation of the solvent (∼15 min), the monolayer was slowly compressed up to a defined lateral pressure (initial surface pressure πi) at a rate of 0.045 nm^2 molecule^−1 min^−1. The value of πi = 5 mN/m was chosen because it lies between the surface pressure set-off and surface pressures (e.g. 30 mN/m, which corresponds to a tightly packed film) where many peptides of the study will not insert. […]

[4] = system: mitochondria isolated from BAX/BAK double knockout mouse embryonic fibroblasts (MEF DKO); assay: Cytochrome c release assay; format: biochemical; conditions: Figure 7B
Method: as §1
Crude mitochondria were prepared from HEK 293T, mouse embryo fibroblast (MEF) or BAX/BAK double knockout MEF cells (MEF-DKO). In brief, cells were mechanically broken using a 2 ml glass/glass Dounce homogenizer (Kontes) (30 strokes). Homogenates were cleared at 1500 g and mitochondria were spun down at 10 000 g. […] At the indicated time points, samples were centrifuged (5 min, 10 000 g, 4°C); supernatants and pellets were recovered and analyzed by immunoblotting for Cytochrome c and mitoHsp70.

[5] = 10 µM peptide, 5 min incubation, 30°C, Western blot of supernatant and pellet
[6] = long versus short α5 peptide, 0.2 µM
[7] = only at the highest concentration assayed, 25 µM, 5 min

AREVIPMAAVKQALREAGDEFELRYRRAF [BCLX-BH3, peptide corresponding to the BH3 domain of BCL-xL]
cytochrome c release, in words (isolated mitochondria; BH3 peptides, dose-response, Figure 7C): no cytochrome c release | effect on isolated mitochondria, in words (isolated mitochondria): lack of effect

DGNFNWGRVVALFYFASKLVLKALSTKVPELIRT [BAX-α5L, long version of BAX helix α5, extended at both ends]
cytochrome c release, in words [1, 5]: some residual cytochrome c was still present in the mitochondrial pellet | final increase of surface pressure πmax (insertion), in words [2]: much lower value | surface pressure compared to BAX-α5S [2, 6]: about half

EKEKTMLVLALLLAKKVASH [BID-α6, first helix (α6) of the central hairpin of BID]
incubation time at which the mitochondrial pool of cytochrome c is depleted ([1]; 10 µM peptide, 30°C, Western blot): 1 h | final increase of surface pressure πmax (insertion), in words [2]: higher than the one of the BH3 peptides

ELIRTIMGWTLDFLRERLLVWIQD [BAX-α6, second helix (α6) of the central hairpin of BAX]
cytochrome c release, in words [1, 5]: complete depletion of all mitochondrial cytochrome c | final increase of surface pressure πmax (insertion), in words [2]: highest increases in surface pressure

EQIMKTGAFLLQGFIQDRAGRW [BAX-α1, control peptide, first helix localized at the N-terminus of BAX, reference compound]
Δπ in POPC/DOPE monolayers [3]: 4 | Δπ in POPC/DOPE/CL monolayers [3]: 3.4

ESQEDIIRNIARHLAQVGDSMDRSIPPGL [BID-BH3, peptide corresponding to the BH3 domain of BID]
concentration at which cytochrome c release starts (isolated mitochondria; BH3 peptides, Figure 7C): 25 µM | initial velocity of surface pressure increase Vi (affinity), in words [2]: strong

NWGRVVALFYFASKLVLKALSTKVPELIR [BAX-α5M]
initial velocity of surface pressure increase Vi (affinity), in words [2]: slightly smaller | cytochrome c release, in words ([4]; mitochondria from MEF DKO): Cytochrome c release also occurred

NWGVVKALFYFASVLRLKALSTKVPELIR [BAX-α5MS]
final increase of surface pressure πmax (insertion), in words [2]: reduced surface pressure compared to BAX-α5M | kinetics of cytochrome c release, in words ([4]; mitochondria from MEF and MEF DKO, relative to BAX-α5M): increased lag time and a decreased rate of cytochrome c release

RDGVNWGRIVAFFSFGGALSVESVDKEMQVLVSR [BCLX-α5L, long version of helix α5 of BCL-xL]
cytochrome c release, in words [1, 7]: release of large amounts of cytochrome c | final increase of surface pressure πmax (insertion), in words [2]: higher than the one of the BH3 peptides | increase in surface pressure compared to BCLX-α5S [2, 6]: ~5 fold

SLLRDVFHTTVNFINQANLRTYVR [BID-α7, second helix (α7) of the central hairpin of BID]
effect on isolated mitochondria, in words (isolated mitochondria): lack of effect | final increase of surface pressure πmax (insertion), in words [2]: lowest increase of surface pressure

TARWKKWGFQPRLKEQEGDVARDSQR [BCL2L10-LAAS, control peptide, connecting region between predicted α5-α6 helices of BCL2L10 (Long Amino Acid Stretch), reference compound]
Δπ in POPC/DOPE monolayers [3]: 3.4 | Δπ in POPC/DOPE/CL monolayers [3]: 5.5

VLVSRIAAWMATYLNDHLEPWIQE [BCLX-α6, second helix (α6) of the central hairpin of BCL-xL]
cytochrome c release, in words [1, 7]: release of large amounts of cytochrome c | final increase of surface pressure πmax (insertion), in words [2]: higher than the one of the BH3 peptides | initial velocity of surface pressure increase Vi (affinity), in words [2]: strong

VPQDASTKKLSECEKRIGNELDSNMELQR [BAX-BH3m, BAX BH3 mutant harboring substitutions (L63E/D68N)]
cytochrome c release, in words (isolated mitochondria; even at 100 µM (data not shown)): failed to induce cytochrome c release

VPQDASTKKLSECLKRIGDELDSNMELQR [BAX-BH3, peptide corresponding to the BH3 domain of BAX]
concentration at which cytochrome c release starts (isolated mitochondria; BH3 peptides, Figure 7C): 25 µM

WGRIVAFFSFGGALSVESVDK [BCLX-α5S, short peptide of helix α5 of BCL-xL]
cytochrome c release, in words ([1]; all doses and times tested (2.5, 10 or 25 µM)): completely failed to release cytochrome c | effect on isolated mitochondria, in words (isolated mitochondria): lack of effect | final increase of surface pressure πmax (insertion), in words [2]: lowest increase of surface pressure | initial velocity of surface pressure increase Vi (affinity), in words [2]: strong
